Reference: PMC3828334, “Tumor Cell Death Mediated by Peptides That Recognize Branched Intermediates of DNA Replication and Repair” (PLoS ONE, 2013)
Positions of bridges follow the written chain, without caps; N, C: chain ends. Non-standard residues stand in square brackets, D forms with d. Residues, ends and D or L forms follow the SMILES beside them. Chains are numbered I, II in the order given.

Tests used:
PC3 cells [1] = conditions: 48 h
Procedure: 20,000 PC3 cells were plated overnight in 96 well plates (Costar) at a concentration of 200,000 cells/ml. They are treated with the peptides, doxorubicin, docetaxel alone, or in combination for different time period incubation and the cell viability was determined by MTT assay as described. The percentage survival of the cells with different treatments was calculated using DMSO-vehicle control-treated cells as the standard.

LnCAP cells = type: cell-based; conditions: 48 h
HeLa cells = experiment: TUNEL assay, HeLa, with z-VAD-fmk or z-FA-fmk; type: cell-based; conditions: 24 h
Procedure: 600,000 PC3 cells or 500,000 HeLa cells were plated in 60-mm dishes or 6-well plates respectively to allow them to attach overnight at 37°C with 5% CO2. PC3 cells were subsequently treated with appropriate treatments for 24, 36 and 48 h while HeLa cells were treated with 1 µl of either the caspase inhibitor z-VAD-fmk or z-FA-fmk (both from Biovision), containing appropriate treatments, for 24 h. The cells were fixed with 4% paraformaldehyde for 30 min and permeabilized with 0.1% Triton X-100 in 0.1% sodium citrate buffer for 3 mins. Labeled dUTP were added along with the terminal deoxynucleotidyl transferase dUTP nick end labeling (TUNEL) (TUNEL kit from Roche) as described in the kit. Samples were analyzed using a Becton Dickinson FACS Canto flow cytometer as specified above.

[2] = test system: Htog1 cells (variant of HeLa cells); experiment: Cytochrome C release / TMRE assay for apoptosis; type: cell-based; conditions: 24 h, confocal microscopy
Procedure: 200,000 Htog1 cells (variant of HeLa cells, a generous gift from Drs. Terrence Frey and Maria Guo) were seeded on cover slips mounted on 35 mm microwell petri dishes (Mattek Corp, Ashland, MA) with DMEM supplemented with 10% FBS and allowed to attach overnight at 37°C in 5% CO2. The media was replaced with 1 ml of the appropriate treatment and incubated for 24 h. After 23 h of treatment, 50 µM tetramethyl rhodamine ethyl ester perchlorate (TMRE) solution was added to each well (final concentration 50 nM) and incubated for the remaining hour. Cytochrome C release and loss of TMRE staining were determined in Z-series images acquired using a Leica TCS SP2 inverted confocal microscope. GFP was excited using 488 nm wavelength from an Ar/Kr laser attenuated to 33%, and the emitted fluorescence detected at 497–553 nm. TMRE fluorescence was excited using a 543 nm wavelength from an Ar/Kr laser attenuated to 35%, and the emitted fluorescence detected at 555–620 nm. Each cell was analyzed for release of GFP (GFP channel), loss of mitochondrial membrane potential (TMRE loss) or morphological abnormalities associated with apoptosis, and the % cells positive for each hallmark was calculated for the various treatments.

53BP1 in PC3 cells = experiment: 53BP1 foci by fluorescence microscopy; type: cell-based; conditions: PC3, 48 h
Procedure: 200,000 PC3 cells were plated on cover-slips (Fisherbrand) mounted on each well of the 12-well dishes and allowed to attach overnight at 37°C incubator with 5% CO2. The cells were treated with 50, 100, 150, or 200 µM of wrwycr, or 1, 5, 10, 25, or 50 µM of wrwyrggrywrw for 48 h. […] The samples were probed with 1∶500 diluted mouse anti-γH2AX antibody (Millipore) or 1∶1000 diluted rabbit anti-53BP1 (Novus-Biologicals) with overnight incubation followed by Dylight anti-mouse or anti-rabbit secondary antibodies (Biolegend) respectively. DAPI (5 µg/ml) was used to stain the nucleus. The stained cells on the coverslips were mounted on the glass slides and observed with a Zeiss inverted microscope with AxioVision 4.8 software and using the 100× magnification. Foci of 53BP1 were counted manually and the average number of foci per cell was calculated.

PC3 cells [3] = experiment: Cell cycle analysis (PI, flow cytometry); type: cell-based; conditions: PC3, 200 µM, 48 h or 72 h, 2 independent experiments; DMSO 14%
Procedure: 600,000 PC3 cells were plated in 60-mm dishes at a concentration of 200,000 cells/ml and allowed to attach before they were serum-starved for 48 h by adding RPMI with no supplemented FBS. The cells were then treated in 100, 150 or 200 µM wrwycr in RPMI supplemented with 10% FBS for either 48 h or 72 h followed by permeabilization with cold 70% ethanol overnight. RNase/PI solution (BD Pharmingen) were added to the cells following the protocol in [33] and incubated for 2.5 h at 37°C and analyzed using the PerCP-Cy5-5 channel in a FACS Canto flow cytometer. The results were analyzed using Flow-Jo software.

Chk2 in PC3 cells = experiment: Phospho-Chk2 by flow cytometry; type: cell-based; conditions: PC3, 50 µM wrwycr on its own, 48 h
Procedure: They were subsequently treated with either 50-200 μM […] or 50-100 μM […] or 0.5-1 μM doxorubicin or combination treatment for 0, 12, 24, 36 and 48 h. […] Samples were analyzed using a Becton Dickinson FACS Canto flow cytometer at a forward scatter voltage of 25 V, side-scatter voltage of 400 V, and FITC channel at a voltage of 400 V.

[4] = test system: GRP78 promoter in HeLa cells; experiment: Luciferase reporter assay for ER stress; type: cell-based; conditions: 24 h
Procedure: HeLa cells were transfected with either either 15 µg of plasmid DJT208, carrying the GRP78 promoter (pGRP78) driving the ER-stress response elements ERSE 1, ERSE 2 and ERSE 3 upstream of the luciferase gene, or 15 µg of the plasmid GL2P, carrying the luciferase gene driven by the SV40 promoter (pSV40). All cells were also co-transfected with 10 µg of the PB1 plasmid, carrying the β-galactosidase reporter transcribed by the SV40 promoter, as a transfection control. [The plasmids were generous gifts from Dr. Peter Belmont from Christopher Glembotski's Lab in SDSU]. After 24 h the cells were treated with increasing concentrations of wrwycr (100, 150 and 200 µM) for 24 h and the luciferase activity was measured using an OptocompII Luminometer. Tunicamycin (TM), a known inducer of ER stress, was used as a positive control for the experiment ER stress was calculated as the fold increase of luciferase gene expression from the GRP78 promoter over that from the SV40 promoter of pGL2P for the different concentrations of the peptide over DMSO, which is the solvent for the peptide, or over the media in the case of TM.

[5] = test system: Holliday junctions vs replication forks; conditions: in vitro; ref [20], [22], [26]; cited from earlier work
Description: Our laboratory previously identified peptides and small molecules that bind to Holliday junctions and replication fork mimics, branched DNA structures that are intermediates in DNA repair [18]–[23]. […] In addition to binding HJs in vitro, peptide wrwycr also binds Holliday junctions in vivo [24] and is synergistically toxic with DNA-damaging agents including mitomycin C, UV, H2O2, and topoisomerase inhibitors in bacteria ([25]; Naili, ...

SMILES: N=C(N)NCCC[C@@H](NC(=O)[C@@H](CSSC[C@@H](NC(=O)[C@@H](Cc1ccc(O)cc1)NC(=O)[C@@H](Cc1c[nH]c2ccccc12)NC(=O)[C@@H](CCCNC(=N)N)NC(=O)[C@H](N)Cc1c[nH]c2ccccc12)C(=O)N[C@H](CCCNC(=N)N)C(N)=O)NC(=O)[C@@H](Cc1ccc(O)cc1)NC(=O)[C@@H](Cc1c[nH]c2ccccc12)NC(=O)[C@@H](CCCNC(=N)N)NC(=O)[C@H](N)Cc1c[nH]c2ccccc12)C(N)=O [wrwycr, Trp-Arg-Trp-Tyr-Cys-Arg] (I: H-[dW][dR][dW][dY][dC][dR]-NH2 / II: H-[dW][dR][dW][dY][dC][dR]-NH2; disulfide I:5-II:5; N-terminus assumed)
- IC50 (PC3 cells [1]): 100 µM
- IC50 (LnCAP cells): 100 to 150 µM
- TUNEL-positive cells (HeLa cells; 100 µM wrwycr): 13%
- TUNEL positive cells with caspase inhibitor z-VAD-fmk versus mock inhibitor z-FA-fmk (HeLa cells): No significant difference
- cytochrome C release or loss of TMRE [2]: little or no cytochrome C release or loss of TMRE
- accumulation of 53BP1 foci (53BP1 in PC3 cells): accumulation of 53BP1 protein in a dose-dependent manner
- percentage of the S phase cellular population (PC3 cells [3]): 50%
- cells with activated Chk2 (Chk2 in PC3 cells): About 5%
- pGRP78/pSV40 ([4]; 100 µM, ER stress as fold increase GRP78 promoter over SV40 promoter): 0.84±0.1
- pGRP78/pSV40 ([4]; 150 µM): 1.02±0.44
- pGRP78/pSV40 ([4]; 200 µM): 0.87±0.06
- induction of expression of the GRP78 promoter ([4]; 100–200 µM): did not induce expression of the GRP78 promoter
- higher affinity for HJs than replication forks [5]: 2–5 fold
